The values below are quoted from earlier work in patent US20260216230A1, “SERRATIA ANTICANCER POLYSACCHARIDE COMPOSITIONS AND METHODS” (Board of Supervisors of Louisiana State University and …, priority 2023, published 2026).

This data set relates to refractory Stage 4 patients. The following applies: phase I.

Each structure is given as a SMILES string.

Consider `CC(=O)O[C@H]1C(=O)[C@@]2(C)[C@H]([C@H](OC(=O)c3ccccc3)[C@]3(O)C[C@H](OC(=O)[C@H](O)[C@@H](NC(=O)c4ccccc4)c4ccccc4)C(C)=C1C3(C)C)[C@]1(OC(C)=O)CO[C@@H]1C[C@@H]2O` [Taxol], for which the effectivity is 12%.
